Assay results from paper PMC5131364, “Pharmacologic modulation of RORγt translates to efficacy in preclinical and translational models of psoriasis and inflammatory arthritis” (Scientific Reports, 2016).
Read-outs that look alike come from different tables or passages of the source.

What was measured:
RORβ = biological target: T1, RORβ (Homo sapiens, UniProt Q92753); experiment: 1-hybrid reporter assay in HEK293T cells (GAL4-RORβ); format: cell-based; conditions: HEK-293T
T1 construct: NP_008845, aa 201–459; expressed in transfected cells; host or cells: HEK293T
T1 sequence (Q92753 212-470): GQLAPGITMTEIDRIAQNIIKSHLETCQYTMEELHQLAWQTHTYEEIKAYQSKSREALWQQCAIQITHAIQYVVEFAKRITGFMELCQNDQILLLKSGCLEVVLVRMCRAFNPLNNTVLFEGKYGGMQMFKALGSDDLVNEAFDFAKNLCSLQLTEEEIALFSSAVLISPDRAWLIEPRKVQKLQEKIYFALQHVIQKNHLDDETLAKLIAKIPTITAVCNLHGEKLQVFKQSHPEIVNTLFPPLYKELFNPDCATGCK
Procedure: The reporter assay was performed by transient co-transfection of HEK293T cells with pCMV-BD (Stratagene #211342) containing the GAL4 DNA-binding domain fused with full-length human RORγt (Genbank accession no. NP_001001523, aa 1–497), pFR-Luc reporter and pRL-CMV reporter (Promega #E2261) plus Carrier DNA (Clontech # 630440) using PEI solution (Sigma Aldrich cat# 40872-7) in a 96-well plate. […] Medium was removed and cells were lysed with Passive Lysis Buffer (Promega). Firefly luciferase buffer was then added and firefly luciferase luminescence was read on BMG LUMIstar OPTIMA luminescence plate reader. One second later, renilla luciferase buffer was then added and renilla luciferase luminescence was read to measure cell viability. For RORα and RORβ activity, similar assays were performed except cells were transfected with pCMV-BD-RORα (Genbank accession no. NP_599022, aa 305–556) or pCMV-BD-RORβ (Genbank accession no. NP_008845, aa 201–459).

mouse splenic γδ T cells = experiment: Mouse γδ+ T cell in vitro activation; format: cell-based; conditions: for IC50: Mus musculus, T-cell, IL-1β/IL-23 plus anti-IFNγ, 65 hours, ELISA
Text: The following antibodies (anti-mouse or anti-human) were purchased from BD Biosciences (San Diego, CA) or eBioscience (San Diego, CA): anti-CD3-FITC (mouse 17A2 and human SK7), anti-CD4-allophycocyanin (APC), anti-CD4-PerCp, anti-CD4-FITC, anti-CD4-PE (mouse GK1.5 and human SK3), anti-CD44-PerCp (mouse IM7), anti-γδ TCR-FITC, anti-γδ TCR-PE (mouse GL3 and human B1), anti-CD62L-FITC (mouse MEL-14 and human SK11), anti-CD45RO-APC (human UCHL1), anti-CCR6-PE (human 11A9), anti-CD45-PerCp (mouse 30-F11). Human or mouse anti-IFNγ (mouse XMG1.2 and human 4S.B3), anti-TNFα (mouse MP6-XT22 and human MAB11), anti-IL-17A (mouse eBio17B7 and human eBio64DEC17), anti-IL-22 (mouse 1H8PWSR and human 22URTI), and anti-Foxp3 (mouse FJK-16s and human 36A/E7), all PE or APC conjugated, were purchased from eBioscience (San Diego, CA). Human and mouse APC conjugated CD1d tetramers pre-loaded with alpha-GalCer and negative controls were obtained from ProImmune. For intracellular staining cells were stimulated for 4 hours at 37 °C with PMA and ionomycin (0.5 μg/ml each) in the presence of brefeldin A and monensin or with leukocyte activation cocktail (BD Bioscience, San Diego, CA). Cells were stained with fluorescence-labeled antibodies for surface marker, then fixed/permeabilized (eBioscience) and stained with antibodies for intracellular cytokines. For Foxp3 staining cells were fixed/permeabilized using transcription factor buffer set (eBioscience). The data were acquired on a FACS Calibur (BD Bioscience) and analyzed using FlowJo software (Tree Star, San Carlos, CA).
Mouse γδ^+ T cells were isolated from splenocytes of C57BL/6N mice using TCR γδ^+ T Cell Isolation Kit (Miltenyl Biotec, Auburn, CA), following the manufacturer’s instructions. Cells were resuspended in culture medium and seeded in 96-well plates at 5 × 10^4 per well. […] Cells were incubated at 37 °C and 5% CO2 for 65 hours before sample collection. Supernatant samples were collected for measurement of IL-17A, IL-17F and IL-22 using R&D ELISA kits, according to manufacturer’s instructions. Cytokine-producing cells were analyzed through intracellular staining and flow cytometry analysis.

COc1nc2ccc([C@@](O)(c3ccc(C)nc3C)c3cnnn3C)cc2c(Cl)c1Cc1ccc(C(F)(F)F)cc1 [JNJ-54271074]
IC50 (RORβ): > 10000 nM
decrease of the percentage of IL-17A- and IL-17A/IL-22-producing cells (mouse splenic γδ T cells; 0.1 μM): about 50%
IC50 (mouse splenic γδ T cells; read-out: IC50, IL-17A production): 77 nM
IC50 (mouse splenic γδ T cells; read-out: IC50, IL-17F production): 54 nM
IC50 (mouse splenic γδ T cells; read-out: IC50, IL-22 production): 83 nM
